IC50 data for twelve compounds are collected here from patent US20240246992A1, “MACROCYCLIC LRRK2 KINASE INHIBITORS” (LES LABORATOIRES SERVIER, priority 2021, published 2024).

One may read the IC50 as the concentration needed to halve the response being measured.

Each structure is given as a SMILES string. Some results are limits rather than exact numbers.

The target in the assay is human recombinant LRRK2 protein (Homo sapiens, UniProt Q5S007). Put plainly: LRRK2 kinase activity assay (ADP-Glo, LRRKtide peptide). It is filed as biochemical. As to conditions: human recombinant LRRK2 wt, LRRKtide peptide and ATP, 1 h at 37° C. The essentials: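 ADP-Glo luminescence read-out of a peptide assay: compound, ATP and LRRKtide substrate combined with recombinant human LRRK2 and incubated at 37 °C for 1 h. Ten-point data, N=2, curve-fitted to IC50.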
Chain of human recombinant LRRK2 protein (Q5S007 whole entry): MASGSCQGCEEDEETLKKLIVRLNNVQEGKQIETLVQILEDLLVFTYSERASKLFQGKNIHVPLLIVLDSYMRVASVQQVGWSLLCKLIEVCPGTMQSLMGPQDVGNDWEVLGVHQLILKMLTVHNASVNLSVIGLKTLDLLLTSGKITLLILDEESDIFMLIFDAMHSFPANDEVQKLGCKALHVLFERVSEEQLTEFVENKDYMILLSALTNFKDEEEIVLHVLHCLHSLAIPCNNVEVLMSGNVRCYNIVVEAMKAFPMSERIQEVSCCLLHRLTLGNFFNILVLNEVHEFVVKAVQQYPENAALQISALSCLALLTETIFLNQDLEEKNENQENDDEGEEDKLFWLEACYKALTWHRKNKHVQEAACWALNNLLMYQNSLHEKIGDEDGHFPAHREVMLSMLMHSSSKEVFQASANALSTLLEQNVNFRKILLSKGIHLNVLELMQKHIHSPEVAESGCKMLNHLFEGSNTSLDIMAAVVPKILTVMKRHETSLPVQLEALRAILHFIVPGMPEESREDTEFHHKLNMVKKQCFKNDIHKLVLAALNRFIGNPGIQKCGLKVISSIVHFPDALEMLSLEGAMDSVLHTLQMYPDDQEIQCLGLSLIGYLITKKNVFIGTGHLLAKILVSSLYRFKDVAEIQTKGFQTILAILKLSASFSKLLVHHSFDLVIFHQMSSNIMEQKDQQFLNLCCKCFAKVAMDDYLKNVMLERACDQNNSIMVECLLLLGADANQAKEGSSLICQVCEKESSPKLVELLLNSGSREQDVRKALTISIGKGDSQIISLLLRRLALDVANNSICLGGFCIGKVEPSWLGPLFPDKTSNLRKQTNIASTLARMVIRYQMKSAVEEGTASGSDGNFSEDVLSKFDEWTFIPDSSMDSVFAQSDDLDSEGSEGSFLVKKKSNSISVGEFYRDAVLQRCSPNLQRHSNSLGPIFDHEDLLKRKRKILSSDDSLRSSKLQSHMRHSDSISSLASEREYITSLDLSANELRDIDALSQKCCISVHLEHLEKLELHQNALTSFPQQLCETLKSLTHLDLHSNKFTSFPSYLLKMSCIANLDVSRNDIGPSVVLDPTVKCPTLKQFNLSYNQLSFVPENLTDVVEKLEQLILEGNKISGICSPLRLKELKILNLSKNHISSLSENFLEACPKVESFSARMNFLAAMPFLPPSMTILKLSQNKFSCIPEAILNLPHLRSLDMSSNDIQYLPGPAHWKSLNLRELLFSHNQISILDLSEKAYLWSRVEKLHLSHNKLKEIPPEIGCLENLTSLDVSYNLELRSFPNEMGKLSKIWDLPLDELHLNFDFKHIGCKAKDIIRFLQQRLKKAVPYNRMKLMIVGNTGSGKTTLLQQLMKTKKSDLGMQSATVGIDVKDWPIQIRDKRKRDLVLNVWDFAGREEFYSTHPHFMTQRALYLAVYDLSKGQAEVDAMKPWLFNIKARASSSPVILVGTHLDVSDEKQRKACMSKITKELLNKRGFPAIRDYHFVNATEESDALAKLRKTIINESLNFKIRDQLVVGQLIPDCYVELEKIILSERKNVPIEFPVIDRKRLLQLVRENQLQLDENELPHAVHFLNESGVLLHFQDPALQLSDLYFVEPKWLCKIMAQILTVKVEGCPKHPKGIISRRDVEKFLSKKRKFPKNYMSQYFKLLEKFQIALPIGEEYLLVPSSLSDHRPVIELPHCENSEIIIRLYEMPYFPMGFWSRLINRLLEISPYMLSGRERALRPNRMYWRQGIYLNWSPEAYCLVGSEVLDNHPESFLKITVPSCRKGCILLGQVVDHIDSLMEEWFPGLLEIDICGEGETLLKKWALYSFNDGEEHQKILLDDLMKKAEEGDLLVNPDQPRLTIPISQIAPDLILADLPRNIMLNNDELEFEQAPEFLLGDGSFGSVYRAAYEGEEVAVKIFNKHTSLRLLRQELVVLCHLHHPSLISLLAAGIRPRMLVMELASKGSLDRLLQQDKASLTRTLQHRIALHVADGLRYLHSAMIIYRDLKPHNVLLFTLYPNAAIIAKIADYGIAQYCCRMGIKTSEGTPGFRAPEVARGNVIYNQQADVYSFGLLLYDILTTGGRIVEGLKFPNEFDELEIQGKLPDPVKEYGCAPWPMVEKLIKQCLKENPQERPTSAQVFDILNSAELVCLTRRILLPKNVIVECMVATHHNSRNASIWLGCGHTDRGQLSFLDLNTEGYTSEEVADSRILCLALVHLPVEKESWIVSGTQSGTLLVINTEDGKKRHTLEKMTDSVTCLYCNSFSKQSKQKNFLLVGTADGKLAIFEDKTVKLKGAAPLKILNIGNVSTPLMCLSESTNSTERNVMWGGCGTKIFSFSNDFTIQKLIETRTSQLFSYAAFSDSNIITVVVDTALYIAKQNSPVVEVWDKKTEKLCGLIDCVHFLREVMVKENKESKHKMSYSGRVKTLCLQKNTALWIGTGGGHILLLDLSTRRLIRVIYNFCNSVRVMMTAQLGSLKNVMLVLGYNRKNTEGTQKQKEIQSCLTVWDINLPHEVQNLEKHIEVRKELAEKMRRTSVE
For orientation: ADP-Glo turns the ADP formed in a reaction into a luminescent signal.
With `COC1CN(c2cc3nc(n2)OCCCOC[C@H](C)Oc2ccc4[nH]nc-3c4c2)C1` [Example 27, (13S)-4-(3-methoxyazetidin-1-yl)-13-methyl-7,11,14-trioxa-5,19,20,23-tetra azatetracyclo[13.5.2.1^2,6.0^18,21]tricosa-1(20),2(23),3,5,15(22),16,18(21) heptaene], the IC50 is less than 10 nM. Next, `Cc1ccc2cc1OCC(=O)NCCCOc1ccc3[nH]nc-2c3c1` [Example 140, 5-methyl-7,14-dioxa-10,19,20-triazatetracyclo[13.5.2.1^2,6.0^18,21] tricosa-1(20),2,4,6(23),15,17,21-heptaen-9-one]: less than 10 nM; `C1=C/COCCOc2ccc3[nH]nc(c3c2)-c2cnn(c2)CC/1` [Example 121, (8E)-11,14-dioxa-4,5,19,20-tetraazatetracyclo[13.5.2.1^2,5.0^18,21]tricosa-1(20),2(23),3,8,15(22),16,18(21)-heptaene]: less than 10 nM; `C[C@@H]1CCOCCCn2cc(cn2)-c2n[nH]c3ccc(cc23)O1` [Example 42, (12R)-12-methyl-9,13-dioxa-4,5,18,19-tetraazatetracyclo [12.5.2.1^2,5.0^17,20]docosa-1(19),2(22),3,14(21),15,17(20)-hexaene]: less than 10 nM. With `O=C1COc2cc(C3=CCCOC3)cc(c2)-c2n[nH]c3ccc(cc23)OCCCN1` [Example 210, 4-(5,6-dihydro-2H-pyran-3-yl)-7,14-dioxa-10,19,20-triazatetracyclo[13.5.2.1^2,6.0^18,21]tricosa-1(20),2(23),3,5,15,17,21-heptaen-9-one], the 50% inhibitory concentration (IC50) is less than 10 nM. Next, `C[C@H]1CCOCCOc2cccc(n2)-c2n[nH]c3ccc(cc23)O1` [Example 28, (13S)-13-methyl-7,10,14-trioxa-19,20,23-triazatetracyclo [13.5.2.1^2,6.0^18,21] tricosa-1(20),2(23),3,5,15(22),16,18(21)-heptaene]: less than 10 nM; `CN1CCCOc2ccc3[nH]nc(c3c2)-c2cc(C#N)cc(c2)OCC1=O` [Example 191, 10-methyl-9-oxo-7,14-dioxa-10,19,20-triazatetracyclo [13.5.2.1^2,6.0^18,21]tricosa-1(20),2,4,6(23),15,17,21-heptaene-4-carbonitrile]: less than 100 nM; `CO[C@@H]1CCN(c2cc3nc(n2)O[C@H](C)COCC[C@H](C)Oc2ccc4[nH]nc-3c4c2)C1` [Example 49, (8R,13S)-4-[(3R)-3-methoxypyrrolidin-1-yl]-8,13-dimethyl-7,10,14-trioxa-5,19,20,23-tetraazatetracyclo[13.5.2.1^2,6.0^18,21]tricosa-1(20),2(23),3,5, 15(22),16,18(21)-heptaene]: less than 10 nM. With `c1cc2[nH]nc3c2cc1OCCOCCCOCc1ncc-3s1` [Example 84, 7,11,14-trioxa-23-thia-4,19,20-triazatetracyclo[13.5.2.1^2,5.0^18,21]tricosa-1(20),2,4,15(22), 16,18(21)-hexaene], the IC50 was less than 10 nM. To `c1cc2[nH]nc3c2cc1OCCCCOCCn1ncc-3n1` [Example 115, 8,13-dioxa-4,5,18,19,22-pentaazatetracyclo[12.5.2.1^2,5.0^17,20]docosa-1(19),2(22),3,14(21),15,17(20)-hexaene] belongs less than 10 nM; to `C[C@H]1COCCOCCn2cc(cc2C#N)-c2n[nH]c3ccc(cc23)O1` [Example 72, (13S)-13-methyl-8,11,14-trioxa-5,19,20-triazatetracyclo[13.5.2.1^2,5.0^18,21] tricosa-1(20),2(23),3,15(22),16,18(21)-hexaene-4-carbonitrile], less than 10 nM. Next, `Cc1ccc2cc1OCCNCCCOc1ccc3[nH]nc-2c3c1` [Example 141, 5-methyl-7,14-dioxa-10,19,20-triazatetracyclo[13.5.2.1^2,6.0^18,21] tricosa-1(20),2,4,6(23),15,17,21-heptaene]: less than 10 nM.
